In patent publication US11149016B2, “S-substituted-2-amino-3-mercaptopropionate derivative, preparation method and application thereof” (JIANGSU TASLY DIYI PHARMACEUTICAL CO., LTD., priority 2016, dated 2021):

Test system: mice with memory disorders caused by scopolamine
Assay: Passive avoidance (darkroom) test in mice with scopolamine-injured memory
Type: in vivo, ICR mice
Conditions: for Latency (s) of entering the darkroom / Error times (number of times entering the darkroom within 3 minutes): intragastric, 7 days, scopolamine 3 mg/kg 20 minutes before testing, x ± s, n = 10; for Activity compared with SPRC (in words) / Effect on error times of mice with memory impairment entering the darkroom (in words) / Effect on latency of mice with memory impairment entering the darkroom (in words): passive avoidance test, scopolamine model
Excerpt: Memory functions of mice are injured by scopolamine, and effects of improvement of tested materials on the memory functions of the mice are observed.
Animals: ICR mice, male, 20-22 g, purchased from Institute for Experimental Animals in Chinese Academy of Medical Sciences, certification number: SCXK (JING) 2014-0004.
Agent: scopolamine (J&K Company), donepezil reagent (TCI Company).
Tested materials: 4 tested materials and a positive-drug donepezil are provided by Tasly Group. Dosage of administration: administered by tested materials according to 80 mg/kg weight, administered by donepezil according to 5 mg/kg weight, an administration volume of 2 ml.
purchasing 60 mice, and enabling the mice to adapt to an environment for three days; dividing the mice into 6 groups randomly, wherein a blank control group includes 10 mice, the rest mice are contained in administration groups, and each administration group includes 10 mice; respectively administering the tested materials and positive drug, performing intragastric administration for 7 days, putting the mice into a darkroom to adapt to the environment on the fifth day during administration, electrifying the darkroom on the sixth day during administration, training the mice to elude the darkroom, and training each mouse once; testing on the seventh day, administering with scopolamine by 3 mg/kg within 20 minutes before testing, and recording time of the mice entering the darkroom for the first time and a number of times of the mice entering the darkroom within 3 minutes during testing.
Passive avoidance response is a common method used commonly to detect learning and memory functions of small animals. With respect to a passive avoidance test, by means of a feature that rodents like darkness and keep in a dark place, the rodents are stimulated in the dark to escape to a bright place to acquire memory, and the passive avoidance test is a type of passive avoidance response experiments. The passive avoidance test has a short experimental period and is applicable to rapid drug screening. The scopolamine may inhibit release of acetyl choline, so as to form learning and memory disorders. The passive avoidance test is a stable learning and memory disorder modeling method and has excellent model reproducibility.

[1] = tested materials 80 mg/kg, time of first entry into darkroom
[2] = positive drug donepezil 5 mg/kg

SMILES: C#CCSCC(N)C(=O)Oc1ccc(-c2cc(=S)ss2)cc1 (centres unmarked) [Va, 2-amino-3-propinylmercaptopropionic acid-4-(3-thio-3H-1,2-dithio-5-alkenyl) phenol ester]
- Latency (s) of entering the darkroom [1]: 55.8 ± 61.3 s
- Error times (number of times entering the darkroom within 3 minutes) (tested materials 80 mg/kg): 4.7 ± 4.6

SMILES: C#CCSCC(N)C(=O)Oc1ccc(C=O)cc1 (centres unmarked) [Vb, 2-amino-3-propinylmercaptopropionic acid-4-formyl phenol ester]
- Latency (s) of entering the darkroom [1]: 53.2 ± 59.4 s
- Error times (number of times entering the darkroom within 3 minutes) (tested materials 80 mg/kg): 4.1 ± 3.7

SMILES: C#CCSCC(N)C(=O)OCCCC[N+](=O)[O-] (centres unmarked) [Vf, 2-amino-3-propinylmercaptopropionic acid-4-nitro-1-butanol ester]
- Activity compared with SPRC (in words): obviously better than the activity of the SPRC
- Effect on error times of mice with memory impairment entering the darkroom (in words): trend of decreasing the error times
- Effect on latency of mice with memory impairment entering the darkroom (in words): trend of increasing the latency
- Latency (s) of entering the darkroom [1]: 60.2 ± 61.3 s
- Error times (number of times entering the darkroom within 3 minutes) (tested materials 80 mg/kg): 2.4 ± 2.3

SMILES: COc1cc2c(cc1OC)C(=O)C(CC1CCN(Cc3ccccc3)CC1)C2 (centres unmarked) [Donepezil, donepezil, reference compound]
- Error times (number of times entering the darkroom within 3 minutes) [2]: 6.8 ± 5.4
- Latency (s) of entering the darkroom [2]: 49.5 ± 71.6 s

SMILES: C#CCSCC(N)C(=O)Oc1ccc(CO)cc1 (centres unmarked) [Vc, 2-amino-3-propinylmercaptopropionic acid-4-benzyl alcohol phenol ester]
- Activity compared with SPRC (in words): obviously better than the activity of the SPRC
- Effect on error times of mice with memory impairment entering the darkroom (in words): trend of decreasing the error times
- Effect on latency of mice with memory impairment entering the darkroom (in words): trend of increasing the latency
- Latency (s) of entering the darkroom [1]: 66.8 ± 57.1 s
- Error times (number of times entering the darkroom within 3 minutes) (tested materials 80 mg/kg): 2.4 ± 1.3

SMILES: C#CCSC[C@H](N)C(=O)O [SPRC, S-propargyl-cysteine, reference compound]
- Latency (s) of entering the darkroom [1]: 50.5 ± 69.7 s
- Error times (number of times entering the darkroom within 3 minutes) (tested materials 80 mg/kg): 3.8 ± 4.0

SMILES: C#CCSCC(N)C(=O)OCc1ccc(OC(=O)C(N)CSCC#C)cc1 (centres unmarked) [Vd, bis(2-amino-3-propinylmercaptopropionic acid)-4-benzyl alcohol-1-phenol diester]
- Activity compared with SPRC (in words): obviously better than the activity of the SPRC
- Effect on error times of mice with memory impairment entering the darkroom (in words): trend of decreasing the error times
- Effect on latency of mice with memory impairment entering the darkroom (in words): trend of increasing the latency
- Latency (s) of entering the darkroom [1]: 63.6 ± 69.5 s
- Error times (number of times entering the darkroom within 3 minutes) (tested materials 80 mg/kg): 2.6 ± 3.3
